Assay [1] has as its target human Gal-1 (hGal-1). As to the kind of experiment: Competitive binding assay: biotinylated hGal-1 binding to microplate-adsorbed asialofetuin (ASF). The settings on record: Activity on hGal-1; binding of biotinylated hGal-1 to ASF-coated plates; mean values. How it is done: (§1) Evaluation of Compound Inhibitory Activity (IC50)
The inhibitory activity of compounds is determined in competitive binding assays. This spectrophotometric assay measures the binding of biotinylated human Gal-3 (hGal-3) or human Gal-1 (hGAl-1), respectively, to a microplate-adsorbed glycoprotein, asialofetuin (ASF) (Proc Natl Acad Sci USA. 2013 Mar. 26; 110(13):5052-7.). Alternatively, and preferably, a human Gal-1 version in which all six cysteines are substituted by serines may be used.
Briefly, compounds are serially diluted in DMSO (working dilutions). ASF-coated 384 well pates are supplemented with 22.8 μL/well of biotinylated hGal-3 or hGal-1 in assay buffer (i.e. 300-1000 ng/mL biotinylated hGal-3 or hGal-1) to which 1.2 μL of compound working dilutions are added and mixed.
Plates are incubated for 3 hours at 4° C. then washed with cold assay buffer (3×50 uL), incubated for 1 hour with 25 μL/well of a streptavidin-peroxidases solution (diluted in assay buffer to 80 ng/mL) at 4° C., followed by further washing steps with assay buffer (3×50 uL). Finally, 25 μL/well of ABTS substrate is added. OD (410 nm) is recorded after 30 to 45 min and IC50 values are calculated.
(§2) The calculated IC50 values may fluctuate depending on the daily assay performance. Fluctuations of this kind are known to those skilled in the art. IC50 values from several measurements are given as mean values.

The target in assay [2] is human Gal-3 (hGal-3) (Homo sapiens (Human), UniProt P17931). As to the kind of experiment: Competitive binding assay: biotinylated hGal-3 binding to microplate-adsorbed asialofetuin (ASF). The settings on record: Activity on hGal-3; binding of biotinylated hGal-3 to ASF-coated plates; mean values. How it is done:
as §1
The inhibitory activity of compounds is determined in competitive binding assays. […] Alternatively, and preferably, a human Gal-1 version in which all six cysteines are substituted by serines may be used.
Briefly, compounds are serially diluted in DMSO (working dilutions).
Plates are incubated for 3 hours at 4° C. then washed with cold assay buffer (3×50 uL), incubated for 1 hour with 25 μL/well of a streptavidin-peroxidases solution (diluted in assay buffer to 80 ng/mL) at 4° C., followed by further washing steps with assay buffer (3×50 uL). Finally, 25 μL/well of ABTS substrate is added.
as §2

Broadly, the IC50 is the concentration that inhibits the measured activity by half.

Sequence of human Gal-3 (hGal-3) (P17931 whole entry): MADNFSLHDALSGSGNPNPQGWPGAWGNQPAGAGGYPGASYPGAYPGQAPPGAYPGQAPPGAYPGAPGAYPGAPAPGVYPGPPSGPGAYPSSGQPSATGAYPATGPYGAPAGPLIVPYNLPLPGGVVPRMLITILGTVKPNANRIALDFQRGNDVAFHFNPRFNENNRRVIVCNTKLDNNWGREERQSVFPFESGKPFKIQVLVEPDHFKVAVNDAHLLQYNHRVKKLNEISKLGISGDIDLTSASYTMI
Sequence of human Gal-1 (hGal-1) (P09382 2-135 limits assumed): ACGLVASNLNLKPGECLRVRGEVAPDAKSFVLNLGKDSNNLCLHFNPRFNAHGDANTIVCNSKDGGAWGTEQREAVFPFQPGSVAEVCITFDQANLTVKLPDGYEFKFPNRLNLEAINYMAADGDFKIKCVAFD

`Nc1nc(Cl)c(CN(C(=O)[C@@H]2O[C@H](CO)[C@H](O)[C@H](n3cc(-c4cc(F)c(F)c(F)c4)nn3)[C@H]2O)[C@H]2CCCC[C@@H]2O)s1` [Example 15, (2R,3R,4S,5R,6R)-N-((2-amino-4-chlorothiazol-5-yl)methyl)-3,5-dihydroxy-N-((1S,2S)-2-hydroxycyclohexyl)-6-(hydroxymethyl)-4-(4-(3,4,5-trifluorophenyl)-1H-1,2,3-triazol-1-yl)tetrahydro-2H-pyran-2-carboxamide]: the IC50 in assay [1] turned out to be 3180 nM; in assay [2], 419 nM.
Taken in the same sequence, the figures for `O=C([C@@H]1O[C@H](CO)[C@H](O)[C@H](n2cc(-c3cc(F)c(F)c(F)c3)nn2)[C@H]1O)N(Cc1cnoc1)[C@H]1CCCC[C@@H]1O` [Example 16, (2R,3R,4S,5R,6R)-3,5-dihydroxy-N-((1S,2S)-2-hydroxycyclohexyl)-6-(hydroxymethyl)-N-(isoxazol-4-ylmethyl)-4-(4-(3,4,5-trifluorophenyl)-1H-1,2,3-triazol-1-yl)tetrahydro-2H-pyran-2-carboxamide] were 28300 nM and 476 nM.
Turning to `O=C([C@@H]1O[C@H](CO)[C@H](O)[C@H](n2cc(-c3cc(F)c(F)c(F)c3)nn2)[C@H]1O)N(Cc1ccc(Cl)o1)[C@H]1CCCC[C@@H]1O` [Example 17, (2R,3R,4S,5R,6R)-N-((5-chlorofuran-2-yl)methyl)-3,5-dihydroxy-N-((1S,2S)-2-hydroxycyclohexyl)-6-(hydroxymethyl)-4-(4-(3,4,5-trifluorophenyl)-1H-1,2,3-triazol-1-yl)tetrahydro-2H-pyran-2-carboxamide], the IC50 in assay [1] was 23100 nM; in assay [2], 281 nM.
Taken in the same sequence, the figures for `O=C([C@@H]1O[C@H](CO)[C@H](O)[C@H](n2cc(-c3cc(F)c(F)c(F)c3)nn2)[C@H]1O)N(Cc1cnsc1)[C@H]1CCCC[C@@H]1O` [Example 18, (2R,3R,4S,5R,6R)-3,5-dihydroxy-N-((1S,2S)-2-hydroxycyclohexyl)-6-(hydroxymethyl)-N-(isothiazol-4-ylmethyl)-4-(4-(3,4,5-trifluorophenyl)-1H-1,2,3-triazol-1-yl)tetrahydro-2H-pyran-2-carboxamide] were 11600 nM and 179 nM.
The matching figures for `O=C([C@@H]1O[C@H](CO)[C@H](O)[C@H](n2cc(-c3cc(F)c(F)c(F)c3)nn2)[C@H]1O)N(Cc1csc(Br)n1)[C@H]1CCCC[C@@H]1O` [Example 20, (2R,3R,4S,5R,6R)-N-((2-bromothiazol-4-yl)methyl)-3,5-dihydroxy-N-((1S,2S)-2-hydroxycyclohexyl)-6-(hydroxymethyl)-4-(4-(3,4,5-trifluorophenyl)-1H-1,2,3-triazol-1-yl)tetrahydro-2H-pyran-2-carboxamide]: 11700 nM and 352 nM.
As to `O=C([C@@H]1O[C@H](CO)[C@H](O)[C@H](n2cc(-c3cc(F)c(F)c(F)c3)nn2)[C@H]1O)N(Cc1cnc(N2CCOCC2)s1)[C@H]1CCCC[C@@H]1O` [Example 21], the IC50 in assay [1] is 10700 nM; in assay [2], 112 nM.
The matching figures for `O=C([C@@H]1O[C@H](CO)[C@H](O)[C@H](n2cc(-c3cc(F)c(F)c(F)c3)nn2)[C@H]1O)N(Cc1ccc(Cl)s1)[C@H]1CCCC[C@@H]1O` [Example 22, (2R,3R,4S,5R,6R)-N-((5-chlorothiophen-2-yl)methyl)-3,5-dihydroxy-N-((1S,2S)-2-hydroxycyclohexyl)-6-(hydroxymethyl)-4-(4-(3,4,5-trifluorophenyl)-1H-1,2,3-triazol-1-yl)tetrahydro-2H-pyran-2-carboxamide]: 86600 nM and 167 nM.
Turning to `O=C([C@@H]1O[C@H](CO)[C@H](O)[C@H](n2cc(-c3cc(F)c(F)c(F)c3)nn2)[C@H]1O)N(Cc1ncc(Cl)s1)[C@H]1CCCC[C@@H]1O` [Example 23, (2R,3R,4S,5R,6R)-N-((5-chlorothiazol-2-yl)methyl)-3,5-dihydroxy-N-((1S,2S)-2-hydroxycyclohexyl)-6-(hydroxymethyl)-4-(4-(3,4,5-trifluorophenyl)-1H-1,2,3-triazol-1-yl)tetrahydro-2H-pyran-2-carboxamide], the IC50 came to 22700 nM in assay [1] and 403 nM in assay [2].
The matching figures for `CO[C@@H]1[C@@H](n2cc(-c3cc(F)c(F)c(F)c3)nn2)[C@@H](O)[C@@H](CO)O[C@H]1C(=O)N(Cc1ncccc1C(F)(F)F)[C@H]1CCCC[C@@H]1O` [Example 25, (2R,3R,4S,5R,6R)-5-hydroxy-N-((1S,2S)-2-hydroxycyclohexyl)-6-(hydroxymethyl)-3-methoxy-N-((3-(trifluoromethyl)pyridin-2-yl)methyl)-4-(4-(3,4,5-trifluorophenyl)-1H-1,2,3-triazol-1-yl)tetrahydro-2H-pyran-2-carboxamide]: 4920 nM and 280 nM.
Turning to `CO[C@@H]1[C@@H](n2cc(-c3cc(F)c(F)c(F)c3)nn2)[C@@H](O)[C@@H](CO)O[C@H]1C(=O)N(Cc1cccnc1C(F)(F)F)[C@H]1CCCC[C@@H]1O` [Example 26, (2R,3R,4S,5R,6R)-5-hydroxy-N-((1S,2S)-2-hydroxycyclohexyl)-6-(hydroxymethyl)-3-methoxy-N-((2-(trifluoromethyl)pyridin-3-yl)methyl)-4-(4-(3,4,5-trifluorophenyl)-1H-1,2,3-triazol-1-yl)tetrahydro-2H-pyran-2-carboxamide], the IC50 in assay [1] is 338 nM; in assay [2], 159 nM.
The matching figures for `O=C([C@@H]1O[C@H](CO)[C@H](O)[C@H](n2cc(-c3cc(F)c(F)c(F)c3)nn2)[C@H]1O)N(Cc1cncnc1C(F)(F)F)[C@H]1CCCC[C@@H]1O` [Example 27, (2R,3R,4S,5R,6R)-3,5-dihydroxy-N-((1S,2S)-2-hydroxycyclohexyl)-6-(hydroxymethyl)-N-((4-(trifluoromethyl)pyrimidin-5-yl)methyl)-4-(4-(3,4,5-trifluorophenyl)-1H-1,2,3-triazol-1-yl)tetrahydro-2H-pyran-2-carboxamide]: 3200 nM and 264 nM.
Taken in the same sequence, the figures for `COc1ncnc(OC)c1CN(C(=O)[C@@H]1O[C@H](CO)[C@H](O)[C@H](n2cc(-c3cc(F)c(F)c(F)c3)nn2)[C@H]1O)[C@H]1CCCC[C@@H]1O` [Example 28, (2R,3R,4S,5R,6R)-N-((4,6-dimethoxypyrimidin-5-yl)methyl)-3,5-dihydroxy-N-((1S,2S)-2-hydroxycyclohexyl)-6-(hydroxymethyl)-4-(4-(3,4,5-trifluorophenyl)-1H-1,2,3-triazol-1-yl)tetrahydro-2H-pyran-2-carboxamide] were 3970 nM and 165 nM.
In the case of `Cc1ncncc1CN(C(=O)[C@@H]1O[C@H](CO)[C@H](O)[C@H](n2cc(-c3cc(F)c(F)c(F)c3)nn2)[C@H]1O)[C@H]1CCCC[C@@H]1O` [Example 29, (2R,3R,4S,5R,6R)-3,5-dihydroxy-N-((1S,2S)-2-hydroxycyclohexyl)-6-(hydroxymethyl)-N-((4-methylpyrimidin-5-yl)methyl)-4-(4-(3,4,5-trifluorophenyl)-1H-1,2,3-triazol-1-yl)tetrahydro-2H-pyran-2-carboxamide], the IC50 in assay [1] amounted to 4410 nM; in assay [2] it was 232 nM.

The values above are taken from patent US12291519B2, “2-hydroxycycloalkane-1-carbamoyl” (Idorsia Pharmaceuticals Ltd, priority 2019, dated 2025).
